Test results published in patent US11131674B2, “Microarray compositions and methods of their use” (ADEPTRIX CORP., priority 2013, dated 2021).

How the values were obtained:
MCF-7 cell line cells [1] = assay: Whole cell MALDI TOF MS imaging of live cell microarray reacted with apoptosis-inducing compounds; format: cell-based, human; conditions: MCF-7 cells, 24 hours; etoposide 1 mM, camptothecin 10 μM, andrographolide 100 μM, 500 μM and 1 mM; FIG. 39E
Experimental: The live cell microarray was fabricated as follows: a sterile 12-well silicone gasket was affixed to a top surface of a sterile APEX™ glass microwell plate, as schematically depicted in FIG. 15A and 1×DMEM cell culture medium supplemented with 10% FBS and 1% of Penicillin/Streptomycin was dispensed into each well of the fabricated 12-chamber cell culture device. Several hundred of MCF-7 cell line cells were seeded into each of the 12 wells and the cells were grown to […] density on the microwell plate within 48 hrs using a standard cell culture protocol. The fabricated live cell microarray thus comprised 12 reactive sites defined by the dimensions of the silicone gasket, each reactive site measuring approximately 7.5 mm×7.5 mm and containing approximately 5×10^5 live cells.
The live cell microarray fabricated as described in the previous Example was utilized to measure response of the MCF-7 cell line cells to several apoptosis-inducing compounds, which included etoposide, camptothecin and andrographolide. In addition, the live cell microarray was utilized to measure response of the MCF-7 cells to the same compound (andrographolide) provided in three different concentrations.
Stock solutions of the three compounds listed above were prepared in DMSO and stored at 4° C. or at −20° C. The compounds were diluted with the DMEM cell culture medium to the final concentrations of 1 mM (etoposide), 10 μM (camptothecin) and 100 μM, 500 μM and 1 mM (andrographolide) immediately before use. The original cell growth medium within the individual wells of the silicone gasket was removed by pipetting and replaced with approximately 250 μL of a cell growth medium supplemented with a specific compound. FIG. 39A schematically depicts a layout of the cell microarray. […]
The reacted cell microarray was measured by MALDI TOF MS in the linear mid-mass positive mode as described previously. […]

MCF-7 cells = assay: Difference whole cell mass spectrometry for detection of spectral changes due to apoptosis; format: cell-based, human; conditions: 24 hrs incubation, FIG. 35
Experimental: The human breast cancer cell line MCF-7 cells were grown in Gibco® DMEM medium on a 6-well clear polystyrene cell culture plate (BD Falcon). The cells were grown according to the manufacturer's protocol to approximately 75% confluency. At this point several apoptosis-inducing compounds were added to the individual wells and the cells were further incubated for 24 hrs. Both live adherent cells and dead cells detached from the surface were collected from the individual wells of the cell culture plate and the cell viability count was performed on Countless® automated cell counter (Life Technologies) per manufacturer's protocol.
The cells for WCMS analysis were prepared as described in the previous examples. The cell concentration was approximately 1,000 cells per μL.
Whole cell MALDI TOF MS spectra were acquired from the control (untreated) and treated cell populations using instrument parameters described in the previous examples. […] The bottom spectrum represents a difference mass spectrum produced by subtracting the control spectrum from the Etoposide-treated spectrum.

MCF-7 cell line cells [2] = assay: Optical imaging of cell density and morphology on composite microbead-microwell live cell microarray; format: cell-based, human; conditions: MCF-7 cells, 24 hours, optical microscope, FIG. 41A/41B
Description: In this Example, the release of etoposide from the beads into the cell culture medium occurred primarily via diffusion mechanism, although other methods, such as photorelease of active compounds from individual beads may be also utilized due to the fact that the solid support used for the microarray fabrication is sufficiently transparent in the UV-visible range.
Optical imaging: the multi-well gasket was separated from the microwell array plate, the surface of the plate rinsed with 1×PBS buffer and the microwell plate was imaged using an optical microscope to determine the cell density and cell morphology. A representative image acquired from an area of the microwell plate, which contained the cells exposed to the drug-free DMEM medium, is shown in FIG. 41A. A representative image acquired from an area of the microwell plate, which contained the cells exposed to the etoposide-containing DMEM medium, is shown in FIG. 41B.

[3] = Cell counting (Trypan blue, automated cell counter) on composite microbead-microwell live cell microarray; conditions: human, MCF-7 cells on a microbead-microwell array plate
MCF-7 cell line cells [4] = assay: as above; conditions: MCF-7 cells, 24 hours, cell growth medium supplemented with etoposide released from the ion exchange beads; Trypan blue

In the case of `CC[C@@]1(O)C(=O)OCc2c1cc1n(c2=O)Cc2cc3ccccc3nc2-1` [camptothecin], the “intensity of peaks in the 7,891-7,977 m/z spectral region compared to untreated cells” value (“intensity of peaks … compared to untreated cells” for short) (MCF-7 cell line cells [1]) is reported as “significantly greater intensity”.
For `COc1cc([C@@H]2c3cc4c(cc3[C@@H](O[C@@H]3O[C@@H]5CO[C@@H](C)O[C@H]5[C@H](O)[C@H]3O)[C@H]3COC(=O)[C@H]23)OCO4)cc(OC)c1O` [etoposide], the “difference mass spectrum, treated minus control” value (MCF-7 cells) was “reveals multiple spectral features”, the “density of adherent cells, drug-free vs etoposide-containing DMEM medium” value (MCF-7 cell line cells [2]) was “significantly greater density of adherent cells was observed for the cells grown in the drug-free medium” and the viability at 24 h [3] was 44%. The live cells (MCF-7 cell line cells [4]) was 2.1×10^5, the total cells (MCF-7 cell line cells [4]) was 4.7×10^5 and the “intensity of peaks … compared to untreated cells” value (MCF-7 cell line cells [1]) was “significantly greater intensity”.
In the case of `C=C1CC[C@@H]2[C@](C)(CO)[C@H](O)CC[C@@]2(C)[C@@H]1C/C=C1/C(=O)OC[C@H]1O` [andrographolide], the “intensity of peaks … compared to untreated cells” value (MCF-7 cell line cells [1]) is reported as “significantly greater intensity”.
